Source: patent US11008323B2, “Substituted tricyclic 1,4-benzodiazepinone derivatives as allosteric modulators of group II metabotropic glutamate receptors” (Domain Therapeutics, priority 2015, dated 2021)
Structures can show the parent of a compound that is named as a salt.

Row | melting point [°C] | Compound
1 | 166 to 184 | Cc1ncccc1-c1ccc2c(c1F)-n1cccc1C(=O)N(C)C21CC1 (as salt: hydrochloride) [Example 75, 10-Fluoro-5-methyl-9-(2-methyl-pyridin-3-yl)-spiro[benzo[f]pyrrolo[1,2-a][1,4]diazepine-6,1′-cyclopropan]-4(5H)-one]
2 | 200 to 210 | Cc1ncccc1-c1cc2c(cc1F)C1(CC1)N(C)C(=O)c1cccn1-2 (as salt: hydrochloride) [Example 77, 8-Fluoro-5-methyl-9-(2-methyl-pyridin-3-yl)-spiro[benzo[f]pyrrolo[1,2-a][1,4]diazepine-6,1′-cyclopropan]-4(5H)-one]
3 | 150 to 158 | Cc1ncccc1-c1ccc2c(c1)-n1c(F)ccc1C(=O)N(C)C21CC1 (as salt: hydrochloride) [Example 81, 9-(2-Methyl-pyridin-3-yl)-1-fluoro-5-methyl-spiro[benzo[f]pyrrolo[1,2-a][1,4]diazepine-6,1′-cyclopropan]-4(5H)-one]
4 | 250 | Cc1ncccc1-c1cccc2c1-n1cccc1C(=O)N(C)C21CC1 (as salt: hydrochloride) [Example 92, 10-(2-Methyl-pyridin-3-yl)-5-methyl-spiro[benzo[f]pyrrolo[1,2-a][1,4]diazepine-6,1′-cyclopropan]-4(5H)-one]
5 | 218 to 222 | CN1C(=O)c2cc(-c3ccccc3)cn2-c2cc(-c3cccnc3)ccc2C12CC2 (as salt: hydrochloride) [Example 93, 5-Methyl-2-phenyl-9-pyridin-3-yl-spiro[benzo[f]pyrrolo[1,2-a][1,4]diazepine-6,1′-cyclopropan]-4(5H)-one]
6 | 174 to 180 | Cc1ncccc1-c1ccc2c(c1)-n1cc(-c3ccccc3)cc1C(=O)N(C)C21CC1 (as salt: hydrochloride) [Example 95, 5-Methyl-2-phenyl-9-(2-methyl-pyridin-3-yl)-spiro[benzo[f]pyrrolo[1,2-a][1,4]diazepine-6,1′-cyclopropan]-4(5H)-one]
7 | > 250 | CN1C(=O)c2cc(-c3ccccc3)cn2-c2cc(-c3ccc(N)nc3)ccc2C12CC2 (as salt: hydrochloride) [Example 96, 5-Methyl-2-phenyl-9-(6-amino-pyridin-3-yl)-spiro[benzo[f]pyrrolo[1,2-a][1,4]diazepine-6,1′-cyclopropan]-4(5H)-one]
8 | 227 to 234 | Cc1cc(-c2ccc3c(c2)-n2cc(-c4ccccc4)cc2C(=O)N(C)C32CC2)cc(C)n1 (as salt: hydrochloride) [Example 97, 5-Methyl-2-phenyl-9-(2,6-dimethyl-pyridin-4-yl)-spiro[benzo[f]pyrrolo[1,2-a][1,4]diazepine-6,1′-cyclopropan]-4(5H)-one]
9 | 212 to 220 | Cc1cncc(-c2ccc3c(c2)-n2cc(-c4ccccc4)cc2C(=O)N(C)C32CC2)c1 (as salt: hydrochloride) [Example 98, 5-Methyl-2-phenyl-9-(5-methyl-pyridin-3-yl)-spiro[benzo[f]pyrrolo[1,2-a][1,4]diazepine-6,1′-cyclopropan]-4(5H)-one]
10 | 179 to 183 | CCc1ncccc1-c1ccc2c(c1)-n1cc(-c3ccccc3)cc1C(=O)N(C)C21CC1 (as salt: hydrochloride) [Example 99, 5-Methyl-2-phenyl-9-(2-ethyl-pyridin-3-yl)-spiro[benzo[f]pyrrolo[1,2-a][1,4]diazepine-6,1′-cyclopropan]-4(5H)-one]
11 | 205 to 217 | Cc1ccncc1-c1ccc2c(c1)-n1cc(-c3ccccc3)cc1C(=O)N(C)C21CC1 (as salt: hydrochloride) [Example 101, 5-Methyl-2-phenyl-9-(4-methyl-pyridin-3-yl)-spiro[benzo[f]pyrrolo[1,2-a][1,4]diazepine-6,1′-cyclopropan]-4(5H)-one]
12 | 220 to 230 | CN1C(=O)c2cc(-c3ccccc3)cn2-c2cc(-c3ccncc3)ccc2C12CC2 (as salt: hydrochloride) [Example 102, 5-Methyl-2-phenyl-9-(pyridin-4-yl)-spiro[benzo[f]pyrrolo[1,2-a][1,4]diazepine-6,1′-cyclopropan]-4(5H)-one]
13 | 200 to 215 | Cc1ccc(-c2ccc3c(c2)-n2cc(-c4ccccc4)cc2C(=O)N(C)C32CC2)cn1 (as salt: hydrochloride) [Example 103, 5-Methyl-2-phenyl-9-(6-methyl-pyridin-3-yl)-spiro[benzo[f]pyrrolo[1,2-a][1,4]diazepine-6,1′-cyclopropan]-4(5H)-one]
14 | 168 to 173 | CN1C(=O)c2cc(-c3ccccc3)cn2-c2cc(-c3cncnc3)ccc2C12CC2 (as salt: hydrochloride) [Example 104, 5-Methyl-2-phenyl-9-(pyrimidin-5-yl)-spiro[benzo[f]pyrrolo[1,2-a][1,4]diazepine-6,1′-cyclopropan]-4(5H)-one]
15 | 225 to 235 | Cc1cc(-c2ccc3c(c2)-n2cc(-c4ccccc4)cc2C(=O)N(C)C32CC2)ccn1 (as salt: hydrochloride) [Example 105, 5-Methyl-2-phenyl-9-(2-methyl-pyridin-4-yl)-spiro[benzo[f]pyrrolo[1,2-a][1,4]diazepine-6,1′-cyclopropan]-4(5H)-one]
16 | 206 to 214 | Cc1ccc(-c2ccc3c(c2)-n2cc(-c4ccccc4)cc2C(=O)N(C)C32CC2)c(C)n1 (as salt: hydrochloride) [Example 107, 5-Methyl-2-phenyl-9-(2,6-dimethyl-pyridin-3-yl)-spiro[benzo[f]pyrrolo[1,2-a][1,4]diazepine-6,1′-cyclopropan]-4(5H)-one]
17 | 185 to 198 | CN1C(=O)c2cc(-c3ccccc3)cn2-c2cc(-c3ccccn3)ccc2C12CC2 (as salt: hydrochloride) [Example 111, 5-Methyl-2-phenyl-9-(pyridin-2-yl)-spiro[benzo[f]pyrrolo[1,2-a][1,4]diazepine-6,1′-cyclopropan]-4(5H)-one]
18 | 209 to 212 | CCc1ccc(-c2ccc3c(c2)-n2cc(-c4ccccc4)cc2C(=O)N(C)C32CC2)cn1 (as salt: hydrochloride) [Example 112, 5-methyl-2-phenyl-9-(6-ethylpyridin-3-yl)-spiro[benzo[f]pyrrolo[1,2-a][1,4]diazepine-6,1′-cyclopropan]-4(5H)-one]
19 | 200 to 208 | CN(C)c1ccc(-c2ccc3c(c2)-n2cc(-c4ccccc4)cc2C(=O)N(C)C32CC2)cn1 (as salt: hydrochloride) [Example 114, 5-Methyl-2-phenyl-9-(6-dimethylamino-pyridin-3-yl)-spiro[benzo[f]pyrrolo[1,2-a][1,4]diazepine-6,1′-cyclopropan]-4(5H)-one]
20 | 160 to 170 | CN(C)c1ccc2c(c1)-n1cc(-c3ccccc3)cc1C(=O)N(C)C21CC1 (as salt: hydrochloride) [Example 115, 9-Dimethylamino-5-methyl-2-phenyl-spiro[benzo[f]pyrrolo[1,2-a][1,4]diazepine-6,1′-cyclopropan]-4(5H)-one]
21 | > 250 | CNc1ccc(-c2ccc3c(c2)-n2cc(-c4ccccc4)cc2C(=O)N(C)C32CC2)cn1 (as salt: hydrochloride) [Example 118, 5-Methyl-2-phenyl-9-(6-methylamino-pyridin-3-yl)-spiro[benzo[f]pyrrolo[1,2-a][1,4]diazepine-6,1′-cyclopropan]-4(5H)-one]
22 | 209 to 213 | CN(C)c1ncccc1-c1ccc2c(c1)-n1cc(-c3ccccc3)cc1C(=O)N(C)C21CC1 (as salt: hydrochloride) [Example 119, 5-Methyl-2-phenyl-9-(2-dimethylamino-pyridin-3-yl)-spiro[benzo[f]pyrrolo[1,2-a][1,4]diazepine-6,1′-cyclopropan]-4(5H)-one]
23 | > 250 | Cc1cc(-c2ccc3c(c2)-n2nc(-c4ccccc4)cc2C(=O)N(C)C32CC2)cc(C)n1 (as salt: hydrochloride) [Example 121, 9-(2,6-Dimethyl-pyridin-4-yl)-5-methyl-2-phenyl-spiro[benzo[f]pyrazolo[1,5-a][1,4]diazepine-6,1′-cyclopropan]-4(5H)-one]
24 | > 250 | Cc1cc(-c2ccc3c(c2)-n2nc(-c4ccccc4)cc2C(=O)N(C)C32CC2)ccn1 (as salt: hydrochloride) [Example 122, 9-(2-Methyl-pyridin-4-yl)-5-methyl-2-phenyl-spiro[benzo[f]pyrazolo[1,5-a][1,4]diazepine-6,1′-cyclopropan]-4(5H)-one]
25 | 185 to 206 | Cc1ncccc1-c1ccc2c(c1)-n1nc(-c3ccccc3)cc1C(=O)N(C)C21CC1 (as salt: hydrochloride) [Example 125, 9-(2-Methyl-pyridin-3-yl)-5-methyl-2-phenyl-spiro[benzo[f]pyrazolo[1,5-a][1,4]diazepine-6,1′-cyclopropan]-4(5H)-one]
26 | > 250 | Cc1ccc(-c2ccc3c(c2)-n2nc(-c4ccccc4)cc2C(=O)N(C)C32CC2)c(C)n1 (as salt: hydrochloride) [Example 126, 9-(2,6-Dimethyl-pyridin-3-yl)-5-methyl-2-phenyl-spiro[benzo[f]pyrazolo[1,5-a][1,4]diazepine-6,1′-cyclopropan]-4(5H)-one]
27 | > 250 | CN1C(=O)c2cc(-c3ccccc3)nn2-c2cc(-c3ccc(N)nc3)ccc2C12CC2 (as salt: hydrochloride) [Example 127, 9-(6-Amino-pyridin-3-yl)-5-methyl-2-phenyl-spiro[benzo[f]pyrazolo[1,5-a][1,4]diazepine-6,1′-cyclopropan]-4(5H)-one]
28 | 235 to 240 | Cc1ncccc1-c1ccc2c(c1)-n1cc(-c3ccccc3)nc1C(=O)N(C)C21CC1 (as salt: hydrochloride) [Example 140, 9-(2-Methyl-pyridin-3-yl)-5-methyl-2-phenyl-spiro[benzo[f]imidazo[1,2-a][1,4]diazepine-6,1′-cyclopropan]-4(5H)-one]
29 | > 250 | Cc1ncccc1-c1ccc2c(c1)-n1cc(-c3cccnc3)cc1C(=O)N(C)C21CC1 (as salt: hydrochloride) [Example 143]
30 | 162 to 175 | Cc1cc2n(c1)-c1cc(-c3cccnc3C)ccc1C1(CC1)N(C)C2=O (as salt: hydrochloride) [Example 144]
